Assay results: patent US8906897B2, “Antimicrobial agents based on hemin derivatives” (Obschestvo S Ogranichennoi Otvetstvennostiyu …, priority 2009, dated 2014)

How the values were obtained:
[1] = tested on: human leukocytes; experiment: Cytotoxic activity against human leukocytes; settings: for toxic effect on human blood leukocytes (in words): concentrations of up to 1 mM, 3 h
Procedure: Total leukocytes were isolated from human blood by unforced sedimentation using freshly collected venous blood from a healthy donor.
Blood (10 mL) added with 10 units/mL heparin was exposed for 2.5 h in the dark at a temperature of 15 to 18° C. A light-colored liquid supernatant (4 mL) was collected over the layer of sedimenting erythrocytes, washed three times with balanced Hanks's salt solution, and resuspended in the RPMI-1640 medium (added with 8% fetal bovine serum, 2 mM L-glutamine, and 10 mM HEPES; hereinafter, the complete medium).
The concentrations of leukocytes and erythrocytes in the suspension were determined by counts in Goryachev's chamber, after which the suspension was adjusted to a leukocyte concentration of (1.0±0.1)×10^6 cells/mL with the complete medium.
To determine the cytotoxicity of the tested compounds for human leukocytes, the cell suspension was transferred to wells of sterile 96-well plates, tested compounds were added with serial twofold dilutions (the range of tested concentrations was from 3.2 to 100 μM for GrD and gramicidin S; from 8 to 500 μM for compound XIII; and from 8 to 1000 μM for compounds V, VI, VII, VIII, IX, X, XI, XIV, XV, XIX, and Hem), and the mixture was carefully stirred. The experiment was performed in two replicas.
As controls served cells added with an equivalent amount of the solvent in which tested compounds were prepared, namely: water for compounds VII and X; an aqueous solution of DMSO for compounds V, VI, VIII, and IX; and DMSO for GrD, gramicidin S, Hem, XI, XIII, XIV, XV, and XIX. An additional control was an additive-free leukocyte suspension.
Cells were incubated with tested compounds for 3 h (37° C., 5% CO2, 100% humidity). Leukocyte death values were quantified using fluorescence microscopy. Staining with propidium iodide (it permeates only into dead cells nuclei) and Hoechst 33342 (it stains all nuclei) was used to recognize dead and living cells. Cells were incubated for 15 min in plates with propidium iodide and Hoechst 33342 (37° C., 5% CO2), and then the plates were placed under a microscope for analysis.
The dead cell fraction was derived from the fluorescence images of cells obtained in the blue (Hoechst 33342) and red (propidium iodide) spectral ranges using an Axio Observer (Zeiss, Germany) fluorescence microscope equipped with a 10× objective lens (Plan-Neofluar 10×/0.3). The following sets of fluorescence filters were used. For propidium iodide: a 530/585-nm bandpass excitation filter, a 600-nm cut-off dichroic minor, and a 615-nm longpass barrier filter for analysis. For Hoechst 33342: a 359/372-nm bandpass excitation filter, a 395-nm cut-off dichroic mirror, and a 397-nm longpass barrier filter for analysis.
A digital camera recorded three types of cell images: (a) an image in the transmitted white light; (b) a blue fluorescence image obtained with UV excitation, and (c) a red fluorescence image obtained with green light excitation. At least four fields of view were photographed per well in various regions of a well.

[2] = tested on: Candida albicans No. 927; experiment: Antifungal activity, culture growth with pH indicator; format: cell-based; parameters: key to Test culture growth at various dilutions of the agent: (−) No growth; the indicator is blue; (±) Weak growth; the indicator is yellow, but the precipitate of grown cells looks as a diffuse spot; (+) Strong growth; the indicator is yellow, and the cell precipitate looks as a compact spot
How it was run: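 Museum strains grown one day on glucose-peptone-yeast medium at 32° C; compounds two-fold serially diluted (DMSO ≤5% for insoluble ones) in synthetic medium with Bromocresol Blue, ~10^3 CFU/mL. Growth read as blue-to-yellow shift (pH 5.5→4.5) after 1 h at 32° C with stirring, then 27° C: C. neoformans 2 and 5 days, C. albicans 1 and 4 days.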

Row | SMILES | Death of leukocytes in the presence of 1 mM of compound ([1]; 3 h incubation) [%] | concentration at which a weak toxic effect on leukocytes appears ([1]; 3 h incubation) [µM] | Test culture growth at various dilutions of the agent ([2]; dilution 0: 1 × 10^−4 M) | Test culture growth at various dilutions of the agent ([2]; dilution : 2 of 1 × 10^−4 M) | Test culture growth at various dilutions of the agent ([2]; dilution : 4 of 1 × 10^−4 M) | Test culture growth at various dilutions of the agent ([2]; dilution : 8 of 1 × 10^−4 M) | Test culture growth at various dilutions of the agent ([2]; dilution : 16 of 1 × 10^−4 M) | Test culture growth at various dilutions of the agent ([2]; dilution : 32 of 1 × 10^−4 M) | Test culture growth at various dilutions of the agent ([2]; dilution : 64 of 1 × 10^−4 M) | concentration with practically fungicidal effect ([2]; control inoculations from wells on day 1 to 4 post-exposure) | Death of leukocytes in the presence of 1 mM of compound ([1]; 3 h incubation, listed as hemin) [%] | toxic effect on human blood leukocytes (in words) [1]
1 | C=CC1=C(C)c2cc3[n-]c(cc4nc(cc5[n-]c(cc1n2)c(C)c5CCC(=O)NCCO)C(CCC(=O)NCCO)=C4C)c(C)c3C=C.[Cl-].[Fe+3] [Compound XIV, Protohemin IX 6,7-bis-N-(2-Hydroxyethyl)amide] | 17.5 ± 0.7 | ~1000 | ± | + | + | + | + | + | + |  |  | 
2 | C=CC1=C(C)c2cc3[n-]c(cc4nc(cc5[n-]c(cc1n2)c(C)c5CCC(=O)N[C@@H](CCC(=O)N[C@@H](CCCNC(=N)N)C(=O)OC)C(=O)N[C@@H](CCCNC(=N)N)C(=O)OC)C(CCC(=O)N[C@@H](CCC(=O)N[C@@H](CCCNC(=N)N)C(=O)OC)C(=O)N[C@@H](CCCNC(=N)N)C(=O)OC)=C4C)c(C)c3C=C.[Cl-].[Fe+3] [Compound XVIII, 6,7-bis[bis(N^α-L-Arginyl Methyl Ester)-L-Glutamyl]-Protohemin IX] |  |  | − | − | − | ± | ± | ± | ± | about 5×10^−5 M |  | 
3 | C=CC1=C(C)c2cc3[n-]c(cc4[n-]c(cc5nc(cc1n2)C(C)=C5C=C)c(C)c4CCC(=O)O)c(CCC(=O)O)c3C.[Cl-].[Fe+3] [Hem, hemin] | 40 ± 2 |  | ± | + | + | + | + | + | + |  | 40 | 
4 | C=CC1=C(C)c2cc3[n-]c(cc4nc(cc5[n-]c(cc1n2)c(C)c5CCC(=O)N[C@@H](CO)C(=O)OC)C(CCC(=O)N[C@@H](CO)C(=O)OC)=C4C)c(C)c3C=C.[Cl-].[Fe+3] [VIII] | 6.1 ± 0.3 |  | ± | ± | ± | + | + | + | + |  |  | did not cause the death
5 | C=CC1=C(C)c2cc3[n-]c(cc4nc(cc5[n-]c(cc1n2)c(C)c5CCC(=O)N[C@@H](CCCNC(=N)N)C(=O)OC)C(CCC(=O)N[C@@H](CCCNC(=N)N)C(=O)OC)=C4C)c(C)c3C=C.[Cl-].[Fe+3] [VII] | 8.0 ± 0.8 |  | ± | + | + | + | + | + | + |  |  | did not cause the death
